According to patent US20150057465A1, “CONTROL OF GROWTH-INDUCTION-PRODUCTION PHASES” (OPX BIOTECHNOLOGIES, INC., priority 2013, published 2015):
“Also recorded” adds a separate entry of the source. Read-outs that look alike come from different tables or passages of the source.

Columns and labels:
E. coli strains = assay: Growth inhibition of E. coli strains grown in the presence of 3-HP; assay type: cell-based
E. coli ACCase = E. coli ACCase (Escherichia coli, UniProt P0A9Q5+P0ABD5+P0ABD8+P24182); details: for effect of salt on ACCase activity: E. coli ACCase, dose-dependent studies, FIG. 4; for decrease of the activity of the ACCase enzyme: relative to control (FIG. 4)
Protocol: Levels of greater than 0.66M (60 g/L) are expected to be present for commercially viable commercial production of 3-HP.
Each gene was amplified by PCRs with Pfu Ultra II HS using the manufacturer's instructions, and the PCR products were purified using the Zymo PCR Cleanup kit. Concentrations of products were measured using the Nanodrop spectophotometer. The Gibson Assembly kit (NEB) was used to construct plasmids expressing the ACCase subunit genes as directed by the manufacturer. The effect of NH4-3-HP and NH4Cl on H. elongata ACCase was tested and compared to the E. coli ACCase.

H. elongata ACCase = assay: Salt inhibition of H. elongata ACCase activity; assay type: biochemical, Halomonas elongata; details: ACCase from the halophile H. elongata, compared to E. coli ACCase, FIG. 4
Protocol: Accordingly, the genes encoding the accA, accB, accC, accD of H. elongata described in Table 1 were synthesized for expression in E. coli using codons optimized for this organism and supplied individually on pUC57 plasmids without promoters. Synthetic operons comprising the subunits were assembled using the Gibson assembly method.
Concentrations of products were measured using the Nanodrop spectophotometer.

3HP titer = assay: 1 L fermentation with overexpression of rhtA exporter, 3HP titer; assay type: cell-based, E. coli; details: compared to control plasmid without rhtA, FIG. 7
Protocol: A known chemical exporter from E. coli that has been previously characterized for homoserine transport, rhtA, was evaluated for increased production of 3-HP. A mutant version of the exporter, rhtA(P2S) (SEQ ID NO. 30 nucleic acid, SEQ ID NO. 31 protein) was synthesized behind the PtpiA promoter and inserted into the pTRC-PyibD-MCR plasmid behind a terminator using the Gibson Assemply kit (NEB) according to manufacturer's instructions. The effects of overexpression of rhtA were evaluated in 1 L fermentation compared to the control plasmid without rhtA. […] Construction of plasmids expressing another putative transporter, ydcO (SEQ ID NO. 32 nucleic acid, SEQ ID NO. 33 protein) is carried out in the same manner.

[1] = salts of 3-HP levels near 0.66M

Sequence of E. coli ACCase (P0A9Q5 whole entry): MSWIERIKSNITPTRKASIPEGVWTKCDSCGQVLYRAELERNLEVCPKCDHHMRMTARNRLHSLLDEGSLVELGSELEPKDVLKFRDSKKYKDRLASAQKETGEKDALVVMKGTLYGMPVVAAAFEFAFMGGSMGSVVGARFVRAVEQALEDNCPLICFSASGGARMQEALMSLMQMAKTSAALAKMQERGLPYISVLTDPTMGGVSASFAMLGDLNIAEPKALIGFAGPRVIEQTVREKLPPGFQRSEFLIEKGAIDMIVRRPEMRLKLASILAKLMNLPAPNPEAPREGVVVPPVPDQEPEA
Sequence of E. coli ACCase (P0ABD5 whole entry): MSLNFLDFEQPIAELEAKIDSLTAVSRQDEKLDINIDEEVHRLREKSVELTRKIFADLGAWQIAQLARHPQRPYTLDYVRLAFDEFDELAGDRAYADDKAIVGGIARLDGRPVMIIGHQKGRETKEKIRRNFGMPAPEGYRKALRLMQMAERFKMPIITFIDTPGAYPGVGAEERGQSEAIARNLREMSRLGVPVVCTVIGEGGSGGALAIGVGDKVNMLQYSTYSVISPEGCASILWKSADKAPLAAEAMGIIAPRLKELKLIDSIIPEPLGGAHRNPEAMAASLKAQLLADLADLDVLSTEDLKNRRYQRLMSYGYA

Molecule: O=C(O)CCO [3-HP, 3-hydroxypropionic acid]
- 3-HP level at which growth inhibition was demonstrated (E. coli strains): ≥ 20 g/L

Molecule: N.O=C(O)CCO [NH4-3-HP]
- effect of salt on ACCase activity (E. coli ACCase): significantly inhibited
- decrease of the activity of the ACCase enzyme (E. coli ACCase; [1]): approximately 80%
- effect of salt on ACCase activity (H. elongata ACCase): less affected

Molecule: Cl.N [NH4Cl]
- effect of salt on ACCase activity (E. coli ACCase): significantly inhibited
- decrease of the activity of the ACCase enzyme (E. coli ACCase; salt levels near 0.44M): approximately 80%
- effect of salt on ACCase activity (H. elongata ACCase): less affected

Molecule: O=C([O-])CCO.[Na+] [Na-3-HP]
- effect of salt on ACCase activity (E. coli ACCase): inhibitory effects
- decrease of the activity of the ACCase enzyme (E. coli ACCase; [1]): approximately 80%

Molecule: [Cl-].[Na+] [NaCl]
- effect of salt on ACCase activity (E. coli ACCase): inhibitory effects
- decrease of the activity of the ACCase enzyme (E. coli ACCase; salt levels near 0.44M): approximately 80%

B1: rhtA: chemical exporter from E. coli characterized for homoserine transport; mutant rhtA(P2S), SEQ ID NO. 30, 31, overexpressed (protein)
chain: MSGSLRKMPVWLPIVILLVAMASIQGGASLAKSLFPLVGAPGVTALRLALGTLILIAFFKPWRLRFAKEQRLPLLFYGVSLGGMNYLFYLSIQTVPLGIAVALEFTGPLAVALFSSRRPVDFVWVVLAVLGLWFLLPLGQDVSHVDLTGCALALGAGACWAIYILSGQRAGAEHGPATVAIGSLIAALIFVPIGALQAGEALWHWSVIPLGLAVAILSTALPYSLEMIALTRLPTRTFGTLMSMEPALAAVSGMIFLGETLTPIQLLALGAIIAASMGSTLTVRKESKIKELDIN
notes: chemical exporter from E. coli characterized for homoserine transport; 30, 31, overexpressed
- 3HP titer (3HP titer): improved production of 3-HP; also recorded: significant improvement in 3HP titer
